Several values for one entry are separate records, joined by “and”; a condition that tells them apart may be missing. Equal values may be shown once.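 Values below derive from 48-hour exposures of cells grown in 96-well plates, with endpoints linearly interpolated between the two concentrations bracketing the appropriate inhibition level. The concentration for 50% growth inhibition is given as GI50. TGI denotes the concentration required for complete inhibition of growth.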
Assays:
Test in all cases: NCI-60 cell line screen, 48 h
RXF 393 renal = system: RXF 393 renal
CCRF-CEM leukemia = system: CCRF-CEM leukemia
SK-MEL-5 melanoma = system: SK-MEL-5 melanoma
U251 CNS = system: U251 CNS
BT-549 breast = system: BT-549 breast
CAKI-1 renal = system: CAKI-1 renal
LOX IMVI melanoma = system: LOX IMVI melanoma
M14 melanoma = system: M14 melanoma
SNB-19 CNS = system: SNB-19 CNS
MALME-3M melanoma = system: MALME-3M melanoma

Compound | TGI (RXF 393 renal) | TGI (CCRF-CEM leukemia) | TGI (SK-MEL-5 melanoma) | TGI (U251 CNS) | TGI (BT-549 breast) | TGI (CAKI-1 renal) | TGI (LOX IMVI melanoma) | TGI (M14 melanoma) | TGI (SNB-19 CNS) | TGI (MALME-3M melanoma) | GI50 (RXF 393 renal) | GI50 (CCRF-CEM leukemia) | GI50 (U251 CNS) | GI50 (CAKI-1 renal) | GI50 (LOX IMVI melanoma) | GI50 (M14 melanoma) | GI50 (MALME-3M melanoma) | GI50 (SNB-19 CNS) | GI50 (SK-MEL-5 melanoma) | GI50 (BT-549 breast)
CN(N=O)C(=O)Nc1ccc(C(=O)O)cc1 | > 100 µM | > 100 µM | > 100 µM | > 100 µM | > 100 µM | > 100 µM | > 100 µM | > 100 µM | > 100 µM |  |  |  |  |  |  |  |  |  |  | 
CC1(C)Cc2nnsc2C2=C1C(=O)CCS2 | > 100 µM | > 100 µM | > 100 µM | > 100 µM |  | > 100 µM | > 100 µM | > 100 µM | > 100 µM | > 100 µM |  |  |  |  |  |  |  |  |  | 
CC(=O)Oc1ccccc1C(=O)NCCC[Se]C#N | 6.7 µM | 21.1 µM |  | 2.95 µM |  | 3.94 µM | 5.26 µM | 5.38 µM | 2.95 µM | 3.62 µM | 2.67 µM | 2.89 µM | 1.6 µM | 1.97 µM | 1.51 µM | 1.82 µM | 1.72 µM | 1.57 µM |  | 
Cc1cccc(C)c1NC(=O)CCCC(=O)C(C#N)c1ccc(Cl)cc1 (stereo not drawn) |  | > 100 µM | > 100 µM | > 100 µM |  | > 100 µM | > 100 µM | > 100 µM | > 100 µM | > 100 µM |  |  |  |  |  |  |  |  |  | 
NC1=NCC(c2ccccn2)C1c1ccc(F)cc1 (stereo not drawn) | > 100 µM | > 100 µM | > 100 µM | > 100 µM |  | > 100 µM | > 100 µM | > 100 µM | > 100 µM | > 100 µM |  |  |  |  |  |  |  |  |  | 
O=[N+]([O-])c1ccc2nc3ccscc-3c2c1 |  | > 100 µM | 33.1 µM | 85.3 µM |  | 26.2 µM | 85.9 µM | 32.4 µM | > 100 µM | > 100 µM |  |  |  |  |  |  |  |  |  | 
COc1ccc(C2N3CCCCC3[C@@H]3c4[nH]c5ccccc5c4CCN23)c(OC)c1 (stereo partly drawn) | 34.6 µM | 63.3 µM | 32.7 µM | > 100 µM |  | > 100 µM |  | 30.5 µM | > 100 µM |  |  |  |  |  |  |  |  |  |  | 
Cc1cccc2cc3cccc(C(=O)NCCN(C)C)c3nc12 | 0.931 µM | 3.53 µM | 0.825 µM | 2.15 µM |  | 0.327 µM | 0.568 µM | 2.43 µM | 6.06 µM | 1.11 µM |  |  |  |  |  |  |  |  |  | 
Cc1nnc2n1N=C(c1ccc(-c3ccc([N+](=O)[O-])cc3)o1)CS2 |  |  |  | > 100 µM |  | > 100 µM | > 100 µM | > 100 µM | > 100 µM | > 100 µM |  |  |  |  |  |  |  |  |  | 
C=C[Si](C)(C)COC(=O)/C(C#N)=C/C=C/c1ccccc1 | > 100 µM | > 100 µM | > 100 µM | > 100 µM |  |  |  | > 100 µM | > 100 µM | > 100 µM |  |  |  |  |  |  |  |  |  | 
CNC1=CC(=O)C2=C(C1=O)C1C3=C(C(=O)C(Br)=C(OC)C3=O)C2c2ccccc21 (stereo not drawn) | 2.99 µM |  | 16.9 µM | 4.26 µM | 5.3 µM | 4.83 µM |  | 17.1 µM | 11.6 µM | 17.9 µM | 1.49 µM |  | 1.41 µM | 1.89 µM |  | 6.76 µM | 6.84 µM | 2.82 µM | 5.46 µM | 1.6 µM
OCC#CCCCCOCC#Cc1ccccc1C#CCOCCCCC#CCO | 96.9 µM |  | 30.5 µM | 35.2 µM | 41.2 µM | 64.8 µM | 27.3 µM | > 100 µM | > 100 µM |  | 31.8 µM |  | 17.2 µM | 27.2 µM | 12.5 µM | 31.2 µM |  | 28.9 µM | 15.1 µM | 16.8 µM
NC(=NCCO)c1ccc(N2CCCN(c3ccc(C(N)=NCCO)cc3)CC2)cc1 |  |  |  | > 100 µM |  | > 100 µM | > 100 µM | > 100 µM | > 100 µM | > 100 µM |  |  | > 100 µM | > 100 µM | > 100 µM | > 100 µM | 72.9 µM | > 100 µM |  | 
CN(C)CCC(=O)N1CCc2c([nH]c3ccccc23)C1c1cccnc1 (stereo not drawn) | 59.7 µM | > 100 µM | > 100 µM | > 100 µM |  | > 100 µM | > 100 µM | > 100 µM | > 100 µM |  |  |  |  |  |  |  |  |  |  | 
NCCn1cnc2nc(NC(=O)c3ccccc3)[nH]c(=O)c21 | > 100 µM |  |  | > 100 µM |  |  | > 100 µM |  | > 100 µM | > 100 µM |  |  |  |  |  |  |  |  |  | 
C[CH2][Ge]([CH2]C)([CH2]C)[O]C(=O)C([O][Ge]([CH2]C)([CH2]C)[CH2]C)c1ccccc1 (stereo not drawn) | 16.1 µM | > 100 µM | 26.8 µM | 41.4 µM |  | 44.9 µM | 24.5 µM | 44.2 µM | 96.1 µM | > 100 µM |  | 20.6 µM | 17.2 µM | 19.2 µM | 12 µM | 17.1 µM | 16.8 µM | 32.5 µM | 11.8 µM | 
O=C(Nc1ccccc1[N+](=O)[O-])C(=O)C(C(=O)c1ccccc1-c1ccccc1)C1OC(=O)c2ccccc21 (stereo not drawn) | 25.9 µM | 76.1 µM | 32.7 µM | 24.2 µM |  | > 100 µM | 36 µM | 28.9 µM | 33.2 µM | 29.9 µM |  |  |  |  |  |  |  |  |  | 
Oc1c(Cl)cc(CN(Cc2cc(Cl)c(O)c(Cl)c2)C2CCCCC2)cc1Cl | > 100 µM |  | > 100 µM | > 100 µM | > 100 µM | > 100 µM | > 100 µM | > 100 µM | > 100 µM | > 100 µM |  |  |  |  |  |  |  |  |  | 
COc1cc(/C=C2\NC(=S)C3Cc4c(OC)c(C)c(OC)c(OC)c4C2N3C)c(OC)c(C)c1OC (stereo not drawn) | 67.6 µM | > 100 µM | 73.1 µM | > 100 µM |  | > 100 µM | > 100 µM | > 100 µM | > 100 µM | > 100 µM |  |  |  |  |  |  |  |  |  | 
CC(=O)OCC1OC(n2c(=S)n(-c3ccccc3)c(=O)c3cc(Br)ccc32)C(OC(C)=O)C(OC(C)=O)C1OC(C)=O (stereo not drawn) | > 100 µM | > 100 µM | > 100 µM | > 100 µM |  | > 100 µM | > 100 µM | > 100 µM | > 100 µM | > 100 µM | 33.7 µM and > 100 µM |  |  |  |  |  | > 100 µM |  |  | 
Cc1cc(Cl)ccc1N1C(=O)C(=O)C(c2nc3ccccc3o2)C(=O)C1=O | > 100 µM | > 100 µM | > 100 µM | > 100 µM |  | > 100 µM |  | > 100 µM | > 100 µM | > 100 µM |  |  |  |  |  |  |  |  |  | 
